Reference: US9365540B2, “Benzimidazole derivatives as MCH receptor antagonists” (Takeda Pharmaceutical Company Limited, priority 2012, dated 2016)

The compounds below were run against T1, human MCH receptor 1 (MCHR1) (Homo sapiens, UniProt Q99705) (assay: human MCH receptor 1 (MCHR1) competitive binding assay with [125I]-MCH(4-19)). Details: test compound 0.1 μM, human MCHR1-expressing CHO cell membrane fraction, 0.1 µM.
T1 construct: expressed in transfected cells; host or cells: CHO cell clone 57 (membrane fraction)
T1 sequence (Q99705 whole entry): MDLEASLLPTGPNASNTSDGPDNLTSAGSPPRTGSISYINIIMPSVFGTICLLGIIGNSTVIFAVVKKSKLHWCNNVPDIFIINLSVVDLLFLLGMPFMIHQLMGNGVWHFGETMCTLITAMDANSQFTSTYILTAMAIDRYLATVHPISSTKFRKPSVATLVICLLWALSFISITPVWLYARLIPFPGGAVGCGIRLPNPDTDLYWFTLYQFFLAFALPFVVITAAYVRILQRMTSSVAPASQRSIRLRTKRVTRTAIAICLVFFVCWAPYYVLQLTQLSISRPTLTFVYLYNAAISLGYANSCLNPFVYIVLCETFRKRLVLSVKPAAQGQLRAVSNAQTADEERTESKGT
Description: Determination of human MCH receptor 1 (MCHR1) competitive inhibitory activity of test compound using binding assay
1. Preparation of Membrane Fraction
Using human MCHR1 (=SLC-1 receptor)-expressing CHO cell clone 57 described in WO01/82925, MCHR1-expressing CHO cell membrane fractions were prepared by the following method.
In phosphate buffered saline (pH 7.4) supplemented with 5 mM EDTA (ethylenediaminetetraacetic acid) were respectively suspended human MCHR1-expressing CHO cells (1×10^8 cells) and centrifuged. Homogenate buffer (10 mL, 10 mM NaHCO3, 5 mM EDTA, pH 7.5, 0.5 mM PMSF (phenylmethylsulfonyl fluoride), 20 mg/L leupeptin, 4 mg/L E-64, 1 mg/L pepstatin A) was added to the pellets of the cells and, using Polytron Homogenizer, the mixture was homogenated. The supernatant obtained after centrifugation at 400×g for 10 min was further centrifuged at 100,000×g for 1 hr to give precipitate of the membrane fraction. The precipitate were suspended in 2 mL of assay buffer [20 mM Tris-HCl (pH 7.5), 5 mM EDTA, 0.5 mM PMSF, 20 mg/L leupeptin, 4 mg/L E-64, 1 mg/L pepstatin A]. The membrane fractions were suspended in assay buffer to a protein concentration of 2 mg/mL, and after dispensing, preserved at −80° C. and used upon thawing each time when in use.
The MCHR1 ligand binding inhibitory activity of the test compound was determined as follows.
An MCHR1-expressing CHO cell membrane fraction (173 μL) diluted with an assay buffer was dispensed to a 96 well polypropylene plate (3363, Corning). DMSO solution (2 μL), 33 μM cold MCH(1-19) diluted with DMSO solution (2 μL), or a test compound solution diluted with DMSO solution to various concentrations (2 μL) was added, and lastly, [^125I]-MCH (4-19) diluted with assay buffer (hereinafter, sometimes to be referred to as “hot MCH”, 25 μL) was added to each well. The mixture was reacted with stirring at room temperature for 1 hr, and the plate was set on FilterMate Harvester (PerkinElmer). Using a treating glass filter plate (GF/C, PerkinElmer) with polyethyleneimine, which had been previously set, the plate was suction-filtered and washed three times with washing buffer (50 mM Tris-HCl buffer pH 7.5). The glass filter plate was dried, MicroScinti0 (PerkinElmer) was added at 25 μL/well, and the resulting radioactivity was measured by TopCount liquid scintillation counter (PerkinElmer). The binding inhibition rate of the test compound was calculated by the following formula. Binding inhibition (%)=100−(radioactivity upon addition of test compound and hot MCH−radioactivity upon addition of cold MCH and hot MCH solution)/(radioactivity upon addition of DMSO solution and hot MCH−radioactivity upon addition of cold MCH and hot MCH solution)×100
The binding inhibition rates (%) of test compounds (0.1 μM) as measured using human MCHR1-expressing CHO cell are shown in Table 2.

In order of rising “Binding inhibition rate % (0.1 μM)” value:
1. Cn1c([C@H]2C[C@@H]2F)nc2ccc(-n3ccc(OCc4ccc(Cl)cc4)cc3=O)cc21 (racemic) [Example 137, 4-((4-Chlorobenzyl)oxy)-1-(2-((1RS,2SR)-2-fluorocyclopropyl)-1-methyl-1H-benzimidazol-6-yl)pyridin-2(1H)-one]  68%
2. Cn1c(C2CC2C(C)(C)O)nc2ccc(-n3ccc(OCc4ccc(Cl)cc4)cc3=O)cc21 (stereo not drawn) [Example 154, 4-((4-Chlorobenzyl)oxy)-1-(2-((1R*,2S*)-2-(2-hydroxypropan-2-yl)cyclopropyl)-1-methyl-1H-benzimidazol-6-yl)pyridin-2(1H)-one]  91%

Same assay, conditions: test compound 0.1 μM, human MCHR1-expressing CHO cell membrane fraction, read-out: Binding inhibition rate % (0.1 μM)

In order of falling inhibition at 0.1 µM:
1. CCC(O)(CC)[C@H]1C[C@H]1c1nc2ccc(-n3ccc(OCc4ccc(Cl)cc4)cc3=O)cc2n1C (racemic) [Example 206, 4-((4-Chlorobenzyl)oxy)-1-(2-((1RS,2SR)-2-(3-hydroxypentan-3-yl)cyclopropyl)-1-methyl-1H-benzimidazol-6-yl)pyridin-2(1H)-one]  95%
2. Cn1c(C2CC2C(C)(C)O)nc2ccc(-n3ccc(OCc4ccc(Cl)cc4)cc3=O)cc21 (stereo not drawn) [Example 153, 4-((4-Chlorobenzyl)oxy)-1-(2-((1R*,2S*)-2-(2-hydroxypropan-2-yl)cyclopropyl)-1-methyl-1H-benzimidazol-6-yl)pyridin-2(1H)-one]  94%
3. Cn1c(C2CC2C(C)(C)F)nc2ccc(-n3ccc(OCc4ccc(Cl)cc4)cc3=O)cc21 (stereo not drawn) [Example 207, 4-((4-Chlorobenzyl)oxy)-1-(2-((1R*,2S*)-2-(2-fluoropropan-2-yl)cyclopropyl)-1-methyl-1H-benzimidazol-6-yl)pyridin-2(1H)-one]  85%
4. Cn1c(C2CC2)nc2ccc(-n3ccc(OCc4ccc5sccc5c4)cc3=O)cc21 [Example 255, 4-(1-Benzothiophen-5-ylmethoxy)-1-(2-cyclopropyl-1-methyl-1H-benzimidazol-6-yl)pyridin-2(1H)-one]  85%
5. Cc1nc2ccc(-n3ccc(OCc4csc(Cl)c4)cc3=O)cn2c1C [Example 165, 4-((5-Chlorothiophen-3-yl)methoxy)-1-(2,3-dimethylimidazo[1,2-a]pyridin-6-yl)pyridin-2(1H)-one]  81%
6. Cc1c(C2CC2)nc2ccc(-n3ccc(OCc4ccc(F)cc4F)cc3=O)cn12 [Example 22, 1-(2-Cyclopropyl-3-methylimidazo[1,2-a]pyridin-6-yl)-4-((2,4-difluorobenzyl)oxy)pyridin-2(1H)-one]  81%
7. CC1CC1c1nc2ccc(-n3ccc(OCc4ccc(Cl)cc4)cc3=O)cc2n1C (stereo not shown) [Example 90, 4-((4-Chlorobenzyl)oxy)-1-(1-methyl-2-(2-methylcyclopropyl)-1H-benzimidazol-6-yl)pyridin-2(1H)-one]  80%
8. Cc1cc(COc2ccn(-c3ccc4nc(C5CC5)n(C)c4c3)c(=O)c2)cs1 [Example 213, 1-(2-Cyclopropyl-1-methyl-1H-benzimidazol-6-yl)-4-((5-methyl-3-thienyl)methoxy)pyridin-2(1H)-one]  79%
9. Cc1c(C2CC2)nc2ccc(-n3ccc(OCc4ccc(F)c(F)c4)cc3=O)cn12 [Example 146, 1-(2-Cyclopropyl-3-methylimidazo[1,2-a]pyridin-6-yl)-4-((3,4-difluorobenzyl)oxy)pyridin-2(1H)-one]  77%
10. Cn1c([C@@H]2C[C@@H]2C(C)(C)O)nc2ccc(-n3ccc(OCc4ccc(F)cc4)cc3=O)cc21 (racemic) [Example 205, 4-((4-Fluorobenzyl)oxy)-1-(2-((1RS,2SR)-2-(2-hydroxypropan-2-yl)cyclopropyl)-1-methyl-1H-benzimidazol-6-yl)pyridin-2(1H)-one]  76%
11. CCn1c(C2CC2)nc2ccc(-n3ccc(OCc4ccc(Cl)cc4)cc3=O)cc21 [Example 21, 4-((4-Chlorobenzyl)oxy)-1-(2-cyclopropyl-1-ethyl-1H-benzimidazol-6-yl)pyridin-2(1H)-one]  76%
12. Cn1c([C@@H]2C[C@@H]2C(C)(C)O)nc2ccc(-n3ccc(OCc4ccccc4)cc3=O)cc21 (racemic) [Example 152, 4-(Benzyloxy)-1-(2-((1RS,2SR)-2-(2-hydroxypropan-2-yl)cyclopropyl)-1-methyl-1H-benzimidazol-6-yl)pyridin-2(1H)-one]  75%
13. Cc1c(C2CC2)nc2ccc(-n3ccc(OCc4ccc(Cl)c(F)c4)cc3=O)cn12 [Example 151, 4-((4-Chloro-3-fluorobenzyl)oxy)-1-(2-cyclopropyl-3-methylimidazo[1,2-a]pyridin-6-yl)pyridin-2(1H)-one]  73%
14. Cn1c(C2CC2)nc2ccc(-n3ccc(OCc4ccsc4F)cc3=O)cc21 [Example 217, 1-(2-Cyclopropyl-1-methyl-1H-benzimidazol-6-yl)-4-((2-fluoro-3-thienyl)methoxy)pyridin-2(1H)-one]  73%
15. Cn1c([C@@H]2C[C@@H]2C(C)(C)O)nc2ccc(-n3ccc(OCc4ccc(Cl)cn4)cc3=O)cc21 (racemic) [Example 204, 4-((5-Chloropyridin-2-yl)methoxy)-1-(2-((1RS,2SR)-2-(2-hydroxypropan-2-yl)cyclopropyl)-1-methyl-1H-benzimidazol-6-yl)pyridin-2(1H)-one]  67%
16. CCc1nc2ccc(-n3ccc(OCc4ccc(C(F)(F)F)s4)cc3=O)cc2n1C [Example 233, 1-(2-Ethyl-1-methyl-1H-benzimidazol-6-yl)-4-((5-(trifluoromethyl)-2-thienyl)methoxy)pyridin-2(1H)-one]  67%
17. CCCc1nc2ccc(-n3ccc(OCc4ccccc4)cc3=O)cc2n1C [Example 126, 4-(Benzyloxy)-1-(1-methyl-2-propyl-1H-benzimidazol-6-yl)pyridin-2(1H)-one]  65%
18. Cc1nc2ccc(-n3ccc(OCc4ccc(Cl)s4)cc3=O)cn2c1C [Example 166, 4-((5-Chlorothiophen-2-yl)methoxy)-1-(2,3-dimethylimidazo[1,2-a]pyridin-6-yl)pyridin-2(1H)-one]  64%
19. Cn1c(C2CC2)nc2ccc(-n3ccc(OCc4ccsc4Cl)cc3=O)cc21 [Example 221, 4-((2-Chloro-3-thienyl)methoxy)-1-(2-cyclopropyl-1-methyl-1H-benzimidazol-6-yl)pyridin-2(1H)-one]  58%
20. Cc1nc2ccc(-n3ccc(OCc4ccc(Cl)cc4)cc3=O)cn2c1C [Example 25, 4-((4-Chlorobenzyl)oxy)-1-(2,3-dimethylimidazo[1,2-a]pyridin-6-yl)pyridin-2(1H)-one]  58%
21. Cn1c(C2CC2)nc2ccc(-n3ccc(OCc4cc(F)cc(F)c4)cc3=O)cc21 [Example 119, 1-(2-Cyclopropyl-1-methyl-1H-benzimidazol-6-yl)-4-((3,5-difluorobenzyl)oxy)pyridin-2(1H)-one]  56%
22. CCCn1c(C2CC2)nc2ccc(-n3ccc(OCc4ccc(Cl)cc4)cc3=O)cc21 [Example 27, 4-((4-Chlorobenzyl)oxy)-1-(2-cyclopropyl-1-propyl-1H-benzimidazol-6-yl)pyridin-2(1H)-one]  55%
23. Cc1ocnc1-c1nc2ccc(-n3ccc(OCc4ccc(F)cc4)cc3=O)cc2n1C [Example 145, 4-((4-Fluorobenzyl)oxy)-1-(1-methyl-2-(5-methyl-1,3-oxazol-4-yl)-1H-benzimidazol-6-yl)pyridin-2(1H)-one]  52%
24. CCc1nc2ccc(-n3ccc(OCc4ccc(F)s4)cc3=O)cc2n1C [Example 246, 1-(2-Ethyl-1-methyl-1H-benzimidazol-6-yl)-4-((5-fluorothiophen-2-yl)methoxy)pyridin-2(1H)-one]  52%
25. Cc1c(C2CC2C#N)nc2ccc(-n3ccc(OCc4ccc(Cl)cc4)cc3=O)cn12 (stereo not shown) [Example 174, 2-(6-(4-((4-Chlorobenzyl)oxy)-2-oxopyridin-1(2H)-yl)-3-methylimidazo[1,2-a]pyridin-2-yl)cyclopropanecarbonitrile]  45%
26. CCc1nc2ccc(-n3ccc(OCc4ccc(Cl)c(F)c4)cc3=O)cc2n1C [Example 229, 4-((4-Chloro-3-fluorobenzyl)oxy)-1-(2-ethyl-1-methyl-1H-benzimidazol-6-yl)pyridin-2(1H)-one]  45%
